Experimental data as given in patent US10829495B2, “Thieno-pyrimidine derivatives and uses thereof” (ZHEJIANG JIANFENG-YIEN BIOTECHNOLOGY CO., LTD., priority 2015, dated 2020).

Key:
NCI-H1975 cells = assay: Efficacy studies in tumor bearing mice (NCI-H1975 xenograft); format: in vivo; settings: female nu/nu mice, subcutaneous NCI-H1975 tumors, orally at 40 mg/kg daily
Procedure: 2. Efficacy Studies in Tumor Bearing Mice:
Female nu/nu mice were implanted with 1×10^7 NCI-H1975 cells in 50% Matrigel subcutaneously in the flank. Tumors were pair matched with a group size of 10 mice. Test compound was administrated orally at 40 mg/kg daily.

EGFR T790M = EGFR T790M (Homo sapiens, UniProt P00533, T790M); assay: EGFR enzyme assay; format: biochemical; settings: T790M mutant
Sequence of EGFR T790M (P00533 25-1210 T790M): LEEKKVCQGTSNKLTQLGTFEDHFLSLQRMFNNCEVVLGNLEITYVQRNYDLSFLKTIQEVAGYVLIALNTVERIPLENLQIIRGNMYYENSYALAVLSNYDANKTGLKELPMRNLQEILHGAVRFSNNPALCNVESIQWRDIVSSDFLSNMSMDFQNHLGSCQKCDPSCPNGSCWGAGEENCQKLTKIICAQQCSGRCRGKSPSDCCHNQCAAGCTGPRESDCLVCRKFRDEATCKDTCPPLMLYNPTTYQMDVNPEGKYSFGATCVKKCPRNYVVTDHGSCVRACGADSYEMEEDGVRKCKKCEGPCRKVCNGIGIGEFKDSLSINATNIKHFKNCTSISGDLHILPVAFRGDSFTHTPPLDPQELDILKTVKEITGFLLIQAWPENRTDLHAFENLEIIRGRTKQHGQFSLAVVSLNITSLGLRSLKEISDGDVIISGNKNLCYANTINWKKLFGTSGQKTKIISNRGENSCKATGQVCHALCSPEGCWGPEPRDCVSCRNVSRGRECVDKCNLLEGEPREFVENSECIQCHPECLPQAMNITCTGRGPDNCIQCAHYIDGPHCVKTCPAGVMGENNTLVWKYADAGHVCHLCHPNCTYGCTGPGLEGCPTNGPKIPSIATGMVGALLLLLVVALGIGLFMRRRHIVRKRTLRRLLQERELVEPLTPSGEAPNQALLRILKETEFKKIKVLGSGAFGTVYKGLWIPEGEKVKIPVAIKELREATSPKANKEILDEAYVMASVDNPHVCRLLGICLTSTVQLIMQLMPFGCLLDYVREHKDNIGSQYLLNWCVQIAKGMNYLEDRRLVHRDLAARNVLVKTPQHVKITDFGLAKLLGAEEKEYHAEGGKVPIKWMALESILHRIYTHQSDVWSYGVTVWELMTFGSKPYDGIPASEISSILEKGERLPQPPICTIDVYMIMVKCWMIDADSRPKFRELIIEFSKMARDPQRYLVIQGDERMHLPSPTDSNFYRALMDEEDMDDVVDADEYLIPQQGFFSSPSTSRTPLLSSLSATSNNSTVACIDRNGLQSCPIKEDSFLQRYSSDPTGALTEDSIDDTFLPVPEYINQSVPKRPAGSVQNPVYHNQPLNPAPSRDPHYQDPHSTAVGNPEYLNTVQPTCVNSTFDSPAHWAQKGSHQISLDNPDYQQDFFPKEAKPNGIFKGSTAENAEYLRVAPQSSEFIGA
Procedure: The following TABLE II lists compounds representative of the invention and their activity in EGFR assays. In these assays, the following grading was used: A: <0.1 μM; B: 0.1-10 μM.

Structure (SMILES) | IC50 (EGFR T790M) [nM] | Tumor growth inhibition (%) (NCI-H1975 cells)
C=CC(=O)Nc1cc(Nc2nc(-c3cn(C(C)(C)C)c4ccccc34)c3sccc3n2)c(OC)cc1N(C)CCN(C)C [Compound 4, N-[5-[[4-(1-tert-butylindol-3-yl)thieno[3,2-d]pyrimidin-2-yl]amino]-2-[2-(dimethylamino)ethyl-methyl-amino]-4-methoxy-phenyl]prop-2-enamide] | 100 to 10000 | 
C=CC(=O)Nc1cc(Nc2nc(-c3cn(C)c4ccc(C)cc34)c3sccc3n2)c(OC)cc1N(C)CCN(C)C [Compound 5, N-[2-[2-(dimethylamino)ethyl-methyl-amino]-5-[[4-(1,5-dimethylindol-3-yl)thienol[3,2-d]pyrimidin-2-yl]amino]-4-methoxy-phenyl]prop-2-enamide] | < 100 | 
C=CC(=O)Nc1cc(Nc2nc(-c3cn(C)c4ccc(OC)cc34)c3sccc3n2)c(OC)cc1N(C)CCN(C)C [Compound 6, N-[2-[2-(dimethylamino)ethyl-methyl-amino]-4-methoxy-5-[[4-(5-methoxy-1-methyl-indol-3-yl)thieno[3,2-d]pyrimidin-2-yl]amino]phenyl]prop-2-enamide] | < 100 | 
C=CC(=O)Nc1cc(Nc2nc(-c3cn(C)c4cc(OC)ccc34)c3sccc3n2)c(OC)cc1N(C)CCN(C)C [Compound 7, N-[2-[2-(dimethylamino)ethyl-methyl-amino]-4-methoxy-5-[[4-(6-methoxy-1-methyl-indol-3-yl)thieno[3,2-d]pyrimidin-2-yl]amino]phenyl]prop-2-enamide] | 100 to 10000 | 
C=CC(=O)Nc1cc(Nc2nc(-c3cn(C)c4cc(C)ccc34)c3sccc3n2)c(OC)cc1N(C)CCN(C)C [Compound 8, N-[2-[2-(dimethylamino)ethyl-methyl-amino]-5-[[4-(1,6-dimethylindol-3-yl)thieno[3,2-d]pyrimidin-2-yl]amino]-4-methoxy-phenyl]prop-2-enamide] | < 100 | 

More lines, main results first:

IC50 (EGFR T790M) [nM] | Structure (SMILES) | Tumor growth inhibition (%) (NCI-H1975 cells)
< 100 | C=CC(=O)Nc1cc(Nc2nc(-c3cn(C)c4ccccc34)c3sccc3n2)c(OC)cc1N(C)CCN(C)C [Compound 1, N-[2-[2-(dimethylamino)ethyl-methyl-amino]-4-methoxy-5-[[4-(1-methylindol-3-yl)thieno[3,2-d]pyrimidin-2-yl]amino]phenyl]prop-2-enamide] | >75
< 100 | C=CC(=O)Nc1cc(Nc2nc(-c3cn(CC)c4ccccc34)c3sccc3n2)c(OC)cc1N(C)CCN(C)C [Compound 2, N-[2-[2-(dimethylamino)ethyl-methyl-amino]-5-[[4-(1-ethylindol-3-yl)thieno[3,2-d]pyrimidin-2-yl]amino]-4-methoxy-phenyl]prop-2-enamide] | >75
< 100 | C=CC(=O)Nc1cc(Nc2nc(-c3cn(C(C)C)c4ccccc34)c3sccc3n2)c(OC)cc1N(C)CCN(C)C [Compound 3, N-[2-[2-(dimethylamino)ethyl-methyl-amino]-5-[[4-(1-isopropylindol-3-yl)thieno[3,3-d]pyrimidin-2-yl]amino]-4-methoxy-phenyl]prop-2-enamide] | 
